Results reported in patent US9278962B2 (Cytokinetics, Inc., priority 2011, dated 2016).

Test system: rabbit skeletal myofibrils (approximately 90% fast fibers)
Assay: Activation of fast skeletal myofibrils (PUMA coupled-enzyme ATPase assay, AC1.4)
Format: biochemical
Details: concentration at which the compound increased enzymatic activity by 40%, calcium at pCa25

Fc1ccc(Br)cc1-c1nnc(NC2(c3ncccc3F)CCC2)[nH]1 [5-(5-bromo-2-fluorophenyl)-N-(1-(3-fluoropyridin-2-yl)cyclobutyl)-4H-1,2,4-triazol-3-amine]
Mean AC1.4 (Table 5): D (D=>20 uM)

CC(C)(CNc1nnc(-c2cc(Br)ccc2F)s1)c1ncccc1F [5-(5-bromo-2-fluorophenyl)-N-(2-(3-fluoropyridin-2-yl)-2-methylpropyl)-1,3,4-thiadiazol-2-amine]
Mean AC1.4 (Table 3): A (A=<1 uM)

CC(C)(Nc1nnc(-c2cc(Br)ccc2F)s1)c1ncccc1F [5-(5-bromo-2-fluorophenyl)-N-(2-(3-fluoropyridin-2-yl)propan-2-yl)-1,3,4-thiadiazol-2-amine]
Mean AC1.4 (Table 3): B (B=1-10 uM)

CC(C)(Nc1nnc(-c2cc(Br)ccc2F)o1)c1ccc(F)cc1 [5-(5-bromo-2-fluorophenyl)-N-(2-(4-fluorophenyl)propan-2-yl)-1,3,4-oxadiazol-2-amine]
Mean AC1.4 (Table 5): B (B=1-10 uM)

Fc1ccc(Br)cc1-c1nnc(NCC2(c3ncccc3F)CCC2)s1 [5-(5-bromo-2-fluorophenyl)-N-((1-(3-fluoropyridin-2-yl)cyclobutyl)methyl)-1,3,4-thiadiazol-2-amine]
Mean AC1.4 (Table 3): A (A=<1 uM)

Fc1ccc(Br)cc1-c1nnc(NC[C@]2(c3ncccc3F)C[C@@H](F)C2)s1 [5-(5-bromo-2-fluorophenyl)-N-(((cis)-3-fluoro-1-(3-fluoropyridin-2-yl)cyclobutyl)methyl)-1,3,4-thiadiazol-2-amine]
Mean AC1.4 (Table 3): A (A=<1 uM)

Fc1ccc(Br)cc1-c1nnc(NC[C@]2(c3ncccc3F)C[C@H](F)C2)s1 [5-(5-bromo-2-fluorophenyl)-N-(((trans)-3-fluoro-1-(3-fluoropyridin-2-yl)cyclobutyl)methyl)-1,3,4-thiadiazol-2-amine]
Mean AC1.4 (Table 3): A (A=<1 uM)

Cc1ccc(Br)cc1-c1nnc(NC[C@]2(c3ncccc3F)C[C@@H](F)C2)s1 [5-(5-bromo-2-methylphenyl)-N-(((cis)-3-fluoro-1-(3-fluoropyridin-2-yl)cyclobutyl)methyl)-1,3,4-thiadiazol-2-amine]
Mean AC1.4 (Table 3): A (A=<1 uM)

Cc1ccc(Br)cc1-c1nnc(NC[C@]2(c3ncccc3F)C[C@H](F)C2)s1 [5-(5-bromo-2-methylphenyl)-N-(((trans)-3-fluoro-1-(3-fluoropyridin-2-yl)cyclobutyl)methyl)-1,3,4-thiadiazol-2-amine]
Mean AC1.4 (Table 3): A (A=<1 uM)

Cc1cc(Br)sc1-c1nnc(NC[C@]2(c3ncccc3F)C[C@H](F)C2)s1 [5-(5-bromo-3-methylthiophen-2-yl)-N-((3-fluoro-1-(3-fluoropyridin-2-yl)cyclobutyl)methyl)-1,3,4-thiadiazol-2-amine]
Mean AC1.4 (Table 3): B (B=1-10 uM)

Fc1cccnc1[C@]1(CNc2nnc(-c3ccc(Br)s3)s2)C[C@H](F)C1 [5-(5-bromothiophen-2-yl)-N-(((cis)-3-fluoro-1-(3-fluoropyridin-2-yl)cyclobutyl)methyl)-1,3,4-thiadiazol-2-amine]
Mean AC1.4 (Table 3): C (C=10-20 uM)

Fc1cccnc1[C@]1(CNc2nnc(-c3ccc(Br)s3)s2)C[C@@H](F)C1 [5-(5-bromothiophen-2-yl)-N-(((trans)-3-fluoro-1-(3-fluoropyridin-2-yl)cyclobutyl)methyl)-1,3,4-thiadiazol-2-amine]
Mean AC1.4 (Table 3): B (B=1-10 uM)

CCc1ccc(F)c(-c2nnc(NC[C@]3(c4ncccc4F)C[C@H](F)C3)s2)c1 [5-(5-ethyl-2-fluorophenyl)-N-((3-fluoro-1-(3-fluoropyridin-2-yl)cyclobutyl)methyl)-1,3,4-thiadiazol-2-amine]
Mean AC1.4 (Table 3): A (A=<1 uM)

CC(C)(CNc1nc(-c2ccc(O)nc2)ns1)c1ccc(F)cc1 [5-(5-{[2-(4-fluorophenyl)-2-methylpropyl]amino}-1,2,4-thiadiazol-3-yl)pyridin-2-ol]
Mean AC1.4 (Table 2): B (B=1-10 uM)
